In this assay the test system is B16 melanocytes. The experiment in a line: Inhibition of melanin synthesis in B16 melanocytes. It counts as cell-based. The conditions noted are these: 0.5% w/v; 3 days; control = 100%. As to the method: To carry out the test, melanocytes (B16 cell line) were incubated for 3 days at 37° C./5% CO2 in a standard growth medium for cell cultures containing foetal calf serum (FCS). The growth medium was then replaced by a standard medium with which the substances to be tested were adjusted to different concentrations. After incubation for 3 days, the number of living cells was determined through the cell protein content (Bradford's method) and the content of synthesized melanin—recorded in the cell homogenizate at an optical density of 475 nm. The results are expressed in % against a control of pure cell culture medium.

Molecule `OC[C@H]1O[C@@H](Oc2ccc(O)cc2)[C@H](O)[C@@H](O)[C@@H]1O` [Arbutin] gave a Cell protein content of 81% and a Melanin content of 35%.

The values are drawn from patent US20040142007A1, “Cosmetic preparations containing an extract of germinating plants” (priority 2001, published 2004).
